The experiment can be described thus: Antiproliferative activity mediated by sigma 1 receptor in rat C6 glioma cells by MTT assay. In general terms: Formazan colour is commonly taken as a measure of viable cells.
By EC50 is commonly meant the midpoint of the concentration-response curve. In the case of `COc1ccc2c(CCCCN3CCCC(C)(C)C3)cccc2c1`, it took 15 µM to reach a half-maximal effect (EC50). That is a double-digit micromolar value.
The value for `COc1ccc2c(CCCN3CCCC(C)(C)C3)cccc2c1` was 40.2 µM; that for `COc1ccc2c(CCCCN3CCCCC3)cccc2c1` was 19.4 µM; that for `CCCN(CCC)CCc1ccc(OC)c(OCCc2ccccc2)c1` was 10.7 µM.
The compound `COc1ccc2c(CCCCN3CCC(C)CC3)cccc2c1` gave an EC50 of 25.5 µM. Against the preceding compound, the EC50 is about 2.4-fold higher.
